Measurements reported in ChEMBL document CHEMBL4651402, “Screening of ~5500 FDA-approved drugs and clinical candidates for anti-SARS-CoV-2 activity” (2021).
Structures can show the parent of a compound that is named as a salt.

System: SARS-CoV-2
Experiment: microbe, parasite or virus in culture
Details: Severe acute respiratory syndrome coronavirus 2, Vero C1008, 48 h

SMILES | IC50 [µM] | IC50 (read-out: pIC50 (converted)) [µM]
O=C1[C@H]2CCCC[C@H]2C(=O)N1CCCCN1CCN(c2nsc3ccccc23)CC1 [PEROSPIRONE] | > 20 | > 20
O=C(NC1CCN(CCCCC2(C(=O)NCC(F)(F)F)c3ccccc3-c3ccccc32)CC1)c1ccccc1-c1ccc(C(F)(F)F)cc1 [LOMITAPIDE] | > 20 | > 20
CC(C)c1nc(-c2ccccc2)cc(-c2ccc(F)cc2)c1/C=C/[C@@H]1C[C@@H](O)CC(=O)O1 [GLENVASTATIN] | > 20 | > 20
C=CCc1ccc(OC)cc1 [ESTRAGOLE] | > 20 | > 20
C[N+]1(C)C2CCC1CC(OC(=O)C(CO)c1ccccc1)C2 (stereo not drawn) | > 20 | > 20
CNc1ccc(-c2ccc3cc(OC[C@H](O)CF)ccc3n2)cn1 [THK-5351] | > 20 | > 20
CC1CCC(C(C)C)C(=O)C1 (stereo not drawn) | > 20 | > 20
O=C(Nc1cnccc1Cl)N1CCN(Cc2ccc3c(c2)OC(F)(F)O3)CC1 [JNJ-42165279] | > 20 | > 20
O=C(N[C@@H](Cc1c[nH]c2ccccc12)C(=O)O)c1ccc(Cl)cc1 [BENZOTRIPT] | > 20 | > 20
CCn1ncnc1COc1nn2c(-c3ccccc3F)nnc2cc1C(C)(C)C [MK-0777] | > 20 | > 20
O=C(c1cccnc1)N1CCOCC1 [NICOPHOLINE] | > 20 | > 20
O=C(c1ccc(/C=C/c2n[nH]c3ccccc23)cc1)N1CCNCC1 [KW-2449] | > 20 | > 20
CC(=O)N[C@@H](Cc1ccccc1)C(=O)N[C@H]1CCCNC(=O)[C@H](CCCN=C(N)N)NC(=O)[C@H](Cc2c[nH]c3ccccc23)NC(=O)[C@@H](CC2CCCCC2)NC(=O)[C@@H]2CCCN2C1=O | > 20 | > 20
CCC(C)(C)C(=O)O[C@H]1C[C@@H](C)C=C2C=C[C@H](C)[C@H](CC[C@@H]3C[C@@H](O)CC(=O)O3)[C@H]21 [SIMVASTATIN] | > 20 | > 20
C[C@@H]1[C@H](O)[C@@H](C)\C=C/C=C\C=C/C=C\C=C/C=C\C=C/[C@H](O[C@@H]2O[C@H](C)[C@@H](O)[C@H](N)[C@@H]2O)C[C@@H]2O[C@](O)(C[C@@H](O)C[C@@H](O)[C@H](O)CC[C@@H](O)C[C@@H](O)CC(=O)O[C@H]1C)C[C@H](O)[C@H]2C(=O)O | > 20 | > 20
O=C(CO)[C@@H](O)[C@H](O)[C@H](O)CO [FRUCTOSE] | > 20 | > 20
C[C@]1(COc2ccc(N3CCC(Oc4ccc(OC(F)(F)F)cc4)CC3)cc2)Cn2cc([N+](=O)[O-])nc2O1 | > 20 | > 20
COc1cc(/C=C/C(=O)N2CCN(CC(=O)N3CCCC3)CC2)cc(OC)c1OC [CINEPAZIDE] | > 20 | > 20
COc1ccc(C(=O)c2ccccc2O)c(O)c1 [DIOXYBENZONE] | > 20 | > 20
Cc1ccc2c(c1)c1c(n2CCc2ccc(C)nc2)CCN(C)C1 [LATREPIRDINE] | > 20 | > 20
CC(C[N+](C)(C)C)OC(N)=O (stereo not drawn) [BETHANECHOL] | > 20 | > 20
CCC(C)(C)O [AMYLENE HYDRATE] | > 20 | > 20
COc1c2occc2c(OC)c2c(=O)cc(C)oc12 [KHELLIN] | > 20 | > 20
CCCc1c(OCC(O)COc2ccc3c(=O)cc(C(=O)O)oc3c2CCC)ccc(C(C)=O)c1O (stereo not drawn) [FPL-55712] | > 20 | > 20
CC12CCC3c4ccc(OS(=O)(=O)O)cc4CCC3C1CCC2O (stereo not drawn) | > 20 | > 20
CC(C)(O)C(=O)Nc1ccc([N+](=O)[O-])c(C(F)(F)F)c1 [HYDROXYFLUTAMIDE] | > 20 | > 20
COc1ccc(CN(CCN(C)C)c2ccccn2)cc1 [PYRILAMINE] | > 20 | > 20

SMILES | IC50 [µM] | IC50 (read-out: pIC50 (converted)) [µM]
CC12CCC3C(CC[C@H]4CC(=O)CCC34C)C1CCC2C(=O)CO (stereo partly drawn) | > 20 | > 20
OCC(O)Cc1ccc2c(c1)OCO2 (stereo not drawn) [SAFROLGLYCOL] | > 20 | > 20
O=C1c2ccccc2C(=O)C1c1ccccc1 [PHENINDIONE] | > 20 | > 20
CN(C)CCCN1c2ccccc2CCc2ccc(C#N)cc21 [CIANOPRAMINE] | > 20 | > 20
CCC[C@@H]1C[C@@H](C(=O)N[C@@H]([C@H]2O[C@H](SC)[C@H](O)[C@@H](O)[C@H]2O)[C@H](C)Cl)N(C)C1 [CLINDAMYCIN HYDROCHLORIDE] | > 20 | > 20
CC(=O)N[C@@H](CCC(N)=O)C(=O)O | > 20 | > 20
CC(C)c1ccc2c(c1)c(SC(C)(C)C)c(CC(C)(C)C(=O)O)n2Cc1ccc(Cl)cc1 | > 20 | > 20
CCN(CC)C(=O)Nc1ccc(OCC(O)CNC(C)(C)C)c(C(C)=O)c1 (stereo not drawn) [CELIPROLOL] | > 20 | > 20
Oc1ccc2ccccc2c1 [BETANAPHTHOL] | > 20 | > 20
C=C(C)[C@@H]1[C@H]2OC(=O)[C@H]1[C@]1(O)C[C@H]3O[C@]34C(=O)O[C@H]2[C@]14C | > 20 | > 20
CN(C)CCC[C@@]1(c2ccc(F)cc2)OCc2cc(C#N)ccc21 [ESCITALOPRAM] | > 20 | > 20
O=C(NCCCN1CCOCC1)c1ccc(Cl)cc1 [EPROBEMIDE] | > 20 | > 20
CN1CCO[C@@H](c2ccccc2)c2ccccc2C1 | > 20 | > 20
CC[N+](C)(C)CCC(C(N)=O)(c1ccccc1)c1ccccc1 [AMBUTONIUM] | > 20 | > 20
CCCN1CCC[C@@H](c2cccc(O)c2)C1 [PRECLAMOL] | > 20 | > 20
c1ccc2c(c1)CCc1cccc3c1C2CN1CCCCC31 (stereo not drawn) [TACLAMINE] | > 20 | > 20
CCC1(c2ccccc2)C(=O)NC(=O)NC1=O [PHENOBARBITAL] | > 20 | > 20
Cc1nc(=O)c(C#N)c(NCc2cccnc2)[nH]1 [PELRINONE] | > 20 | > 20
CN1CCN2c3ccccc3Cn3cccc3[C@@H]2C1 | > 20 | > 20
CN1CCN(C(=O)OC2c3nccnc3C(=O)N2c2ccc(Cl)cn2)CC1 (stereo not drawn) [ZOPICLONE] | > 20 | > 20
CN(C)CCOc1ccccc1Cc1ccccc1 [PHENYLTOLOXAMINE] | > 20 | > 20
CCc1c2c(nc3ccc(O)cc13)-c1cc3c(c(=O)n1C2)COC(=O)[C@]3(O)CC [7-ETHYL-10-HYDROXYCAMPTOTHECIN] | > 20 | > 20
CNn1cc(C(=O)O)c(=O)c2cc(F)c(N3CCN(C)CC3)cc21 [AMIFLOXACIN] | > 20 | > 20
CN1CCC(OC(c2ccccc2)c2ccccc2)CC1 | > 20 | > 20
CCCCn1ccc(N2CCC(c3ccccc3)CC2)c(Cl)c1=O [JNJ-40411813] | > 20 | > 20
CN1CCC23CCCCC2C1Cc1ccc(O)cc13 (stereo not drawn) [RACEMORPHAN] | > 20 | > 20
COCc1c(C(C)C)nc(C(C)C)c(/C=C/[C@@H](O)C[C@@H](O)CC(=O)O)c1-c1ccc(F)cc1 [CERIVASTATIN] | > 20 | > 20
